Assay results as given in patent US20030119742A1, “Methods and compositions to treat cardiovascular disease using 139, 258, 1261, 1486, 2398, 2414, 7660, 8587,10183, 10550, 12680, 17921, 32248, 60489 or 93804” (Millennium Pharmaceuticals, Inc., priority 2001, published 2003).

Key:
[1] = tested on: 1486 mRNA; assay: TaqMan analysis of 1486 mRNA in livers of treated marmosets; type: in vivo, marmoset
From the text: (§1) This example describes the TaqMan™ procedure. The Taqman™ procedure is a quantitative, reverse transcription PCR-based approach for detecting mRNA. The RT-PCR reaction exploits the 5′ nuclease activity of AmpliTaq Gold™ DNA Polymerase to cleave a TaqMan™ probe during PCR. Briefly, cDNA was generated from the samples of interest, e.g., heart, kidney, liver, skeletal muscle, and various vessels, and used as the starting material for PCR amplification. In addition to the 5′ and 3′ gene-specific primers, a gene-specific oligonucleotide probe (complementary to the region being amplified) was included in the reaction (i.e., the Taqman™ probe). […]
(§2) During the PCR reaction, cleavage of the probe separates the reporter dye and the quencher dye, resulting in increased fluorescence of the reporter. Accumulation of PCR products is detected directly by monitoring the increase in fluorescence of the reporter dye. When the probe is intact, the proximity of the reporter dye to the quencher dye results in suppression of the reporter fluorescence. […]

[2] = tested on: 10183 mRNA; assay: TaqMan analysis of 10183 mRNA in in vivo marmoset models
From the text: As assessed by TaqMan analysis, 10183 mRNA is repressed by probucol and cerivastatin/fenofibrate in in vivo marmoset models. Probucol is used clinically for the treatment of atherosclerosis/coronary artery disease. Genes that are regulated by probucol in animal models and/or in vitro models are predicted to be responsible for the therapeutic benefit of this agent and represent new therapeutic targets for the treatment of cardiovascular disease/atherosclerosis/dyslipidemia/lipid disorders. Fibrates are used clinically for the reduction of triglycerides and statins for the reduction of cholesterol, both well-defined risk factor for atherosclerosis/coronary artery disease. Genes that are regulated by this combination treatment in animal models and/or in vitro models are predicted to be responsible for the therapeutic benefit of these agents and represent new therapeutic targets for the treatment of cardiovascular disease/atherosclerosis/dyslipidemia/lipid disorders. […] PPAR alpha agonists are used clinically for the reduction of triglycerides and statins for the reduction of cholesterol, both well-defined risk factor for atherosclerosis/coronary artery disease. […]

[3] = tested on: 10550 mRNA; assay: TaqMan analysis of 10550 mRNA in in vivo marmoset models
From the text: as §1, §2

[4] = tested on: 12680 mRNA; assay: TaqMan analysis of 12680 mRNA in in vivo marmoset models
From the text: as §1, §2

[5] = tested on: 1261 mRNA; assay: TaqMan analysis of 1261 mRNA in human microvascular endothelial cells (HMVEC) from the heart; type: cell-based; conditions: HMVEC from the heart treated with the factor
[6] = tested on: 2414 mRNA; assay: TaqMan analysis of 2414 mRNA during cytokine stimulation of endothelial cells and monocyte/macrophages; type: cell-based; conditions: cytokine stimulation of either endothelial cells or monocyte/macrophages
From the text: CD40L, TNFalpha, IL-1, and IFNgamma were used to stimulate either endothelial cells or monocyte/macrophages. These cytokines initiate/sustain the atherosclerotic pathogenesis
This example describes the TaqMan™ procedure.

[7] = tested on: 2398; conditions: endothelial cells
From the text: as §1, §2

[8] = tested on: 32248 mRNA; assay: TaqMan analysis of 32248 mRNA in monkey liver model; type: in vivo
From the text: As assessed by TaqMan analysis, 32248 mRNA was repressed by n-3 polyunsaturated fatty acid in monkey liver model. […] Genes that are regulated by polyunsaturated fatty acids in animal models and/or in vitro models are predicted to be responsible for the therapeutic benefit of this agent and represent new therapeutic targets for the treatment of cardiovascular disease/atherosclerosis/dyslipidemia/lipid disorders. […] Cholestyramine is used clinically for the reduction of cholesterol, a defined risk factor for atherosclerosis/coronary artery disease. Genes that are regulated by cholestyramine in animal models and/or in vitro models are predicted to be responsible for the therapeutic benefit of this agent and represent new therapeutic targets for the treatment of cardiovascular disease/atherosclerosis/dyslipidemia/lipid disorders. Fibrates are used clinically for the reduction of triglycerides and statins for the reduction of cholesterol, both well-defined risk factor for atherosclerosis/coronary artery disease. Genes that are regulated by this combination treatment in animal models and/or in vitro models are predicted to be responsible for the therapeutic benefit of these agents and represent new therapeutic targets for the treatment of cardiovascular disease/atherosclerosis/dyslipidemia/lipid disorders. 32248 was highly expressed in human liver. […]

CC(C)(Sc1cc(C(C)(C)C)c(O)c(C(C)(C)C)c1)Sc1cc(C(C)(C)C)c(O)c(C(C)(C)C)c1 [probucol]
1486 mRNA [1]: repressed
10183 mRNA [2]: repressed
10550 mRNA [3]: repressed
12680 mRNA [4]: repressed

IL-1beta: pro-angiogenic factor interleukin 1 beta
expression of human 1261 mRNA [5]: upregulated

TNF-alpha
expression of human 1261 mRNA [5]: upregulated
expression of 2414 mRNA [6]: up-regulated

VEGF
expression of human 1261 mRNA [5]: upregulated
2398 expression [7]: upregulated

n-3 polyunsaturated fatty acid
32248 mRNA [8]: repressed

B1: CD40L: cytokine used to stimulate endothelial cells or monocyte/macrophages (protein, UniProt P29965 113-261, looked up)
CD40 ligand, soluble form: MQKGDQNPQIAAHVISEASSKTTSVLQWAEKGYYTMSNNLVTLENGKQLTVKRQGLYYIYAQVTFCSNREASSQAPFIASLCLKSPGRFERILLRAANTHSSAKPCGQQSIHLGGVFELQPGASVFVNVTDPSQVSHGTGFTSFGLLKL
expression of 2414 mRNA [6]: up-regulated

B2: IFNgamma: cytokine used to stimulate endothelial cells or monocyte/macrophages (protein, UniProt P01579 24-161, looked up)
Interferon gamma: QDPYVKEAENLKKYFNAGHSDVADNGTLFLGILKNWKEESDRKIMQSQIVSFYFKLFKNFKDDQSIQKSVETIKEDMNVKFFNSNKKKRDDFEKLTNYSVTDLNVQRKAIHELIQVMAELSPAAKTGKRKRSQMLFRG
expression of 2414 mRNA [6]: up-regulated
